{"source": "patent US12357698B1", "about": "“FUS proteolysis-targeting chimera, preparation method and applications thereof” (SHANDONG NORMAL UNIVERSITY, priority 2024, dated 2025)", "type_in_all_cases": "cell-based", "key": {"SH-SY5Y cells": {"tested_on": "SH-SY5Y cells", "assay": "Neurotoxicity caused by FUS overexpression (ROS, LDH release, CCK8)", "conditions": "SH-SY5Y cells transfected with FUS plasmids, CCK8 cell viability", "experimental": "In this example, ROS detection kit, LDH release detection kit, and CCK8 reagent were used for cytotoxicity detection. Specifically: 5×10^3 SH-SY5Y cells were added to 96-well plates and cultured at 37° C., 5% CO2 cell incubator for 12 hours; FUS plasmids were transfected into the wells, then the cells were cultured at 37° C., 5% CO2 cell incubator for 24 hours, indicated reagents were added to each well, and corresponding indicators were detected according to the kit instructions."}, "FUS-WT": {"target": "T1, FUS-WT (Homo sapiens, UniProt P35637)", "T1 construct": "expressed in transfected cells; host or cells: 293T cells", "T1 sequence (P35637 1-526)": "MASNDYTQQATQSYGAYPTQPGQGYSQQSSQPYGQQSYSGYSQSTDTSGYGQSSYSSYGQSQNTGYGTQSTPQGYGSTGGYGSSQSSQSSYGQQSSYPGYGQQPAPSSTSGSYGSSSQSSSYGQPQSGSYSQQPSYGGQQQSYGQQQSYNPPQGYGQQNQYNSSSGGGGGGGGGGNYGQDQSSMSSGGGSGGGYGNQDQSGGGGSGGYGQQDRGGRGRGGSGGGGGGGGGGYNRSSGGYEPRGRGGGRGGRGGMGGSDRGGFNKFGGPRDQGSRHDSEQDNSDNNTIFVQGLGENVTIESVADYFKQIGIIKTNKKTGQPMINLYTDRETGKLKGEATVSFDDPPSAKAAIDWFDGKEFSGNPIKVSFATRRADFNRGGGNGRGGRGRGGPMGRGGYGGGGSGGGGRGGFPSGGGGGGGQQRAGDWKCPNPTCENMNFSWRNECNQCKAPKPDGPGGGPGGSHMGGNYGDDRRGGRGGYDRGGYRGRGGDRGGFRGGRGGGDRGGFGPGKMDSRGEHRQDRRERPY", "assay": "Degradation of FUS-WT in 293T cells, Western blot", "conditions": "1000 nM, 24 hours"}, "FUS-P525L": {"target": "T2, FUS-P525L (Homo sapiens, UniProt P35637, P525L)", "T2 construct": "expressed in transfected cells; host or cells: 293T cells", "T2 sequence (P35637 1-526 P525L)": "T1 sequence (P35637 1-526) with P525L", "assay": "Degradation of mutant FUS-P525L in 293T cells, Western blot", "conditions": "1000 nM, 24 hours", "experimental": "(§1) dFUS-C1 solutions were prepared at concentration gradients of 37.5 nM, 62.5 nM, 125 nM, 250 nM, 500 nM, 1000 nM, and 2000 nM, and were transfected into 293T cells expressing different mutant FUS proteins using liposomes. After 24 hours, the cells were lysed, and changes in FUS protein were detected by Western blot. FIG. 11A to FIG. 11E show the degradation of different mutant FUS by dFUS-C1 in 293T cells."}, "FUS protein [1]": {"tested_on": "FUS protein", "assay": "Proteomics before and after dFUS-C1 treatment"}, "FUS-R521G": {"target": "T3, FUS-R521G (Homo sapiens, UniProt P35637, R521G)", "T3 construct": "expressed in transfected cells; host or cells: 293T cells", "T3 sequence (P35637 1-526 R521G)": "T1 sequence (P35637 1-526) with R521G", "assay": "Degradation of mutant FUS-R521G in 293T cells, Western blot", "conditions": "1000 nM, 24 hours", "experimental": "as §1"}, "FUS-R521H": {"target": "T4, FUS-R521H (Homo sapiens, UniProt P35637, R521H)", "T4 construct": "expressed in transfected cells; host or cells: 293T cells", "T4 sequence (P35637 1-526 R521H)": "T1 sequence (P35637 1-526) with R521H", "assay": "Degradation of mutant FUS-R521H in 293T cells, Western blot", "conditions": "1000 nM, 24 hours", "experimental": "as §1"}, "FUS-R521C": {"target": "T5, FUS-R521C (Homo sapiens, UniProt P35637, R521C)", "T5 construct": "expressed in transfected cells; host or cells: 293T cells", "T5 sequence (P35637 1-526 R521C)": "T1 sequence (P35637 1-526) with R521C", "assay": "Degradation of mutant FUS-R521C in 293T cells, Western blot", "conditions": "1000 nM, 24 hours", "experimental": "as §1"}, "FUS protein [2]": {"target": "T6, FUS protein (Rattus norvegicus, UniProt Q5PQK2)", "T6 construct": "endogenous in cells; host or cells: PC12 cells", "T6 sequence (Q5PQK2 1-515)": "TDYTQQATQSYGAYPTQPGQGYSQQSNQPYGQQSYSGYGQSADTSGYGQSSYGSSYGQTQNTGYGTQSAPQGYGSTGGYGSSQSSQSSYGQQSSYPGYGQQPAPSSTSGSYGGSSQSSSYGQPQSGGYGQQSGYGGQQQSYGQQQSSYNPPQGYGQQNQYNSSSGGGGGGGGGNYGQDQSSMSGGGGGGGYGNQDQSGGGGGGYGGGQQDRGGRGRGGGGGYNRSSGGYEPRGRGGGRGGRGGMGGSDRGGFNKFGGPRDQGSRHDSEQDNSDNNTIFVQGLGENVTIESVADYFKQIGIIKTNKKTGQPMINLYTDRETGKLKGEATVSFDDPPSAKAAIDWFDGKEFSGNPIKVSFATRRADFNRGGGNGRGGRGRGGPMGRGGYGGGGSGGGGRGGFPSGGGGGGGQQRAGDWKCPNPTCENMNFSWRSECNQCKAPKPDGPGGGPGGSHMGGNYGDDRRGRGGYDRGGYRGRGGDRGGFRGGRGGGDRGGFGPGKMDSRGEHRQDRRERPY", "assay": "FUS degradation in PC12 cells, Western blot", "conditions": "liposome transfection, 24 hours", "experimental": "The 10 PROTACs were transfected into PC12 cells at a final concentration of 125 nM using liposomes. After 24 hours, the cells were lysed, and changes in FUS protein were detected by Western blot.\n(§2) dFUS-C1 solutions were prepared at concentration gradients of 9.4 nM, 18.7 nM, 37.5 nM, 62.5 nM, and 125 nM, and were transfected into PC12 or SH-SY5Y cells using liposomes. After 24 hours, the cells were lysed, and changes in FUS protein were detected by Western blot."}, "FUS protein [3]": {"target": "T7, FUS protein (Homo sapiens, UniProt P35637)", "T7 construct": "endogenous in cells; host or cells: SH-SY5Y cells", "T7 sequence (P35637 1-526)": "T1 sequence (P35637 1-526)", "assay": "FUS degradation in SH-SY5Y cells, Western blot", "conditions": "concentration gradient 9.4-125 nM, liposome transfection, 24 hours", "experimental": "as §2\nThen 15% non-denaturing polyacrylamide gel electrophoresis was performed at 120 V for about 70 min, followed by staining with SYBR Gold nucleic acid gel stain, and finally imaged using a Bio-RAD instrument. […] For testing the FUS protein degradation performance of dFUS-PS, dFUS-PS solutions were prepared at concentration gradients of 9.4 nM, 18.7 nM, 37.5 nM, 62.5 nM, and 125 nM, and were transfected into SH-SY5Y cells using liposomes. After 24 hours, the cells were lysed, and changes in FUS protein were detected by Western blot."}}, "note": "Substitutions are numbered along the chain they refer to."}
{"substance": "dFUS-C1: PROTAC obtained by coupling FUS-1 (N3-FUS-RNA #1, SEQ ID NO: 1) with CRBN ligand (GUUUGGUGAUGUUUGGUGAU; RNA, backbone not given here; 5' azide via C6 amino linker, click-coupled to CRBN ligand (PROTAC))", "values": [{"measurement": "neurotoxicity caused by FUS overexpression", "setting": "SH-SY5Y cells", "value": "significantly inhibited the neurotoxicity caused by FUS overexpression"}, {"measurement": "degradation of FUS-WT", "setting": "FUS-WT", "value": "could efficiently degrade"}, {"measurement": "degradation of FUS-P525L", "setting": "FUS-P525L", "value": "could efficiently degrade"}, {"measurement": "specificity of degradation (proteomics)", "setting": "FUS protein [1]", "value": "specific degradation effects on FUS protein"}, {"measurement": "degradation of FUS-R521G", "setting": "FUS-R521G", "value": "could efficiently degrade"}, {"measurement": "degradation of FUS-R521H", "setting": "FUS-R521H", "value": "could efficiently degrade"}, {"measurement": "degradation of FUS-R521C", "setting": "FUS-R521C", "value": "could efficiently degrade"}, {"measurement": "degradation of FUS protein", "setting": "FUS protein [2]; 125 nM", "value": "stably and efficiently degrade FUS protein"}, {"measurement": "degradation of FUS protein", "setting": "FUS protein [2]; concentration gradient 9.4-125 nM", "value": "could efficiently degrade FUS protein"}, {"measurement": "degradation of FUS protein", "setting": "FUS protein [3]", "value": "could efficiently degrade FUS protein"}]}
